The text below walks through data of ChEMBL document CHEMBL6103571, “Design, synthesis, and evaluation of carboxylic acid-substituted celecoxib isosteres as potential anti-inflammatory agents” (Eur J Med Chem, 2025).

By IC50 is commonly meant the point on the concentration scale where inhibition reaches its midpoint. A word on the inhibition: it is the change of the read-out against control, counted positive when it falls.

Data set [1] can be described thus: Cytotoxicity against mouse RAW264.7 cells incubated for 24 hrs by MTT assay. Format: toxicity, cell-based. For orientation: Tetrazolium dyes change colour on reduction, which living cells bring about.
Data set [2] relates to RAW264.7. The data set is described as follows: Anti-inflammatory activity against LPS-induced mouse RAW264.7 cells assessed as inhibition of NO production at 20 uM preincubated for 1 hrs followed by LPS addition and measured after 24 hrs by Griess reagent-based microplate reader analysis relative to control. The format is functional. Conditions: time 25 hrs. In general terms: The Griess reaction detects nitrite, a stable product of nitric oxide.

The nature of data set [3]: Toxicity in male Sprague-Dawley rat assessed as average number of ulcers at 100 mg/kg, po administrated for 3 days and measured after 2 hrs post last dose. Conditions: in vivo, 74 h. The format is organism-based.
A short description of data set [4]: Toxicity in male Sprague-Dawley rat assessed as ulcer score at 100 mg/kg, po administrated for 3 days and measured after 2 hrs post last dose. Conditions: in vivo, 74 h. The format is organism-based.
The nature of data set [5]: Toxicity in Sprague-Dawley rat assessed as ulcer index at 100 mg/kg, po administrated for 3 days and measured after 2 hrs post last dose. Conditions: in vivo, 74 h. Format: organism-based.
Data set [6] concerns Mus musculus. Kind of data set: Anti-inflammatory activity in TPA-induced male Kunming mouse model of ear edema assessed as reduction in ear erythema at 1.0 mg, TOP pre-administered via ear for 30 mins followed by TPA addition and measured after 6 hrs. The format is functional, organism-based. The conditions noted are these: time 6.5 hrs.
Data set [7] relates to Mus musculus. The data set is described as follows: Anti-inflammatory activity in TPA-induced male Kunming mouse model of ear edema assessed as reduction in ear thickness at 1.0 mg, TOP pre-administered via ear for 30 mins followed by TPA addition and measured after 6 hrs. Format: functional, organism-based. The conditions noted are these: time 6.5 hrs.
The test system of data set [8] is Mus musculus. The data set is described as follows: Anti-inflammatory activity in TPA-induced male Kunming mouse model of ear edema assessed as reduction in ear weight at 1.0 mg, TOP pre-administered via ear for 30 mins followed by TPA addition and measured after 6 hrs. Format: functional, organism-based. The conditions noted are these: time 6.5 hrs.
The target of data set [9] is T1, Prostaglandin G/H synthase 1 (Ovis aries, UniProt P05979).
T1 sequence (P05979 whole entry): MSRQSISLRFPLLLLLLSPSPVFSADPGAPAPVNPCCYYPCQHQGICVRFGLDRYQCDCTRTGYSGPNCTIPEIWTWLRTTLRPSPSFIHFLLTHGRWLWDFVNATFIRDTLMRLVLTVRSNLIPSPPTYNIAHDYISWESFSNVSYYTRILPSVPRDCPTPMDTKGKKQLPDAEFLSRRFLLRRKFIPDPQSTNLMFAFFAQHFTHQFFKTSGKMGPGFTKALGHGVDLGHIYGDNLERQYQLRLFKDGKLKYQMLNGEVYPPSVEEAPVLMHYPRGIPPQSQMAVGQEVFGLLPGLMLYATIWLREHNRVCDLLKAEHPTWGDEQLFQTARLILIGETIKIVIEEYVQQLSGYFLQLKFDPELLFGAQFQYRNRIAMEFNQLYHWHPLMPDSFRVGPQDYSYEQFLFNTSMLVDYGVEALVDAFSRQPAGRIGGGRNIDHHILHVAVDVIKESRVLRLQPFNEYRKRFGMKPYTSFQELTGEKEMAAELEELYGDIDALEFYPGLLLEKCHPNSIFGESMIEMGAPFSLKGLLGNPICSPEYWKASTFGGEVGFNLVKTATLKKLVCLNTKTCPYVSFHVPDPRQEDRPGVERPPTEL
Kind of data set: Inhibition of ovine COX-1 using arachidonic acid as substrate preincubated for 10 mins followed by substrate addition and measured after 2 mins by ELISA. (In general: ELISA stands for enzyme-linked immunosorbent assay.)

For data set [10], the target named is T2, Prostaglandin G/H synthase 2 (Homo sapiens, UniProt P35354).
T2 sequence (P35354 whole entry): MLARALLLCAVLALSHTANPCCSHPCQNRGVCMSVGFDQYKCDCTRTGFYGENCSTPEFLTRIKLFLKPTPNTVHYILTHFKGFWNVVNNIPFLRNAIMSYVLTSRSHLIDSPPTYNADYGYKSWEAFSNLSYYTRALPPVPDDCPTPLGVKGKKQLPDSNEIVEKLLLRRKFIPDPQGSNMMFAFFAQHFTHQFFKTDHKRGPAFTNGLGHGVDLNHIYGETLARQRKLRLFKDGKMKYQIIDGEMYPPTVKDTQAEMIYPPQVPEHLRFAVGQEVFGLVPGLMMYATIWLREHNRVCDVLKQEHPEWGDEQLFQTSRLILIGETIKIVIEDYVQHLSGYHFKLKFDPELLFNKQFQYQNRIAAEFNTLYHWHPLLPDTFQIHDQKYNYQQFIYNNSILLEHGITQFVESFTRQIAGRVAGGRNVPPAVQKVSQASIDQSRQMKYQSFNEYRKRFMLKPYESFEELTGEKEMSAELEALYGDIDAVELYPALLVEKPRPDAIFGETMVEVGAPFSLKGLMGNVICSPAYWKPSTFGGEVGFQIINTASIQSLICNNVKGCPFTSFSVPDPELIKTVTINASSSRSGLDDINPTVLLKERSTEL
Kind of data set: Inhibition of recombinant human COX-2 using arachidonic acid as substrate preincubated for 10 mins followed by substrate addition and measured after 2 mins by ELISA.

Data set [11] in a line: Selectivity index, ratio of IC50 for ovine COX-1 to IC50 for human COX-2.
Data set [12] deals with RAW264.7. Kind of data set: Anti-inflammatory activity in LPS-induced mouse RAW264.7 cells assessed as downregulation of COX-2 expression at 12.5 to 50 uM preincubated for 1 hrs followed by LPS addition for 24 hrs by Western blotting analysis. Conditions: dose 12.5-50 µM, time 25.0 hrs. The format is functional, cell-based.
Data set [13] concerns RAW264.7. The data set is described as follows: Anti-inflammatory activity in LPS-induced mouse RAW264.7 cells assessed as reduction in PGE2 production preincubated for 1 hrs followed by LPS addition for 24 hrs by ELISA. The format is functional, cell-based. The conditions noted are these: dose 12.5-50 µM, time 25.0 hrs.
Data set [14] concerns Mus musculus. Kind of data set: Anti-inflammatory activity in TPA-induced male Kunming mouse model of ear edema assessed as reduction in ear erythema pre-administered topically via ear for 30 mins followed by TPA addition and measured after 6 hrs. Format: functional, organism-based. The conditions noted are these: dose 0.5-1 mg, route top, time 6.5 hrs.
Data set [15] deals with Mus musculus. The data set is described as follows: Anti-inflammatory activity in TPA-induced male Kunming mouse model of ear edema assessed as reduction in ear thickness at 0.5 to 1.0 mg, TOP pre-administered via ear for 30 mins followed by TPA addition and measured after 6 hrs. The format is functional, organism-based. The conditions noted are these: dose 0.5-1 mg, time 6.5 hrs.

In data set [16] the test system is Mus musculus. The data set is described as follows: Anti-inflammatory activity in TPA-induced male Kunming mouse model of ear edema assessed as reduction in ear weight at 0.5 to 1.0 mg, TOP pre-administered via ear for 30 mins followed by TPA addition and measured after 6 hrs. Format: functional, organism-based. The conditions noted are these: dose 0.5-1 mg, time 6.5 hrs.

The test system of data set [17] is Mus musculus. Kind of data set: Anti-inflammatory activity against TPA-induced Kunming mouse ear edema model assessed as downregulation of COX-2 level in ear homogenate pre-administered topically via ear for 30 mins followed by TPA addition and measured after 6 hrs by Western blot analysis. Format: functional, organism-based. Conditions: dose 0.5-1 mg, route top, time 6.5 hrs.

The test system of data set [18] is Mus musculus. The data set is described as follows: Anti-inflammatory activity against TPA-induced Kunming mouse ear edema model assessed as inhibition of PGE2 production in ear homogenate pre-administered topically via ear for 30 mins followed by TPA addition and measured after 6 hrs by ELISA. Format: functional, organism-based. The conditions noted are these: dose 0.5-1 mg, route top, time 6.5 hrs.

Data set [19] in a line: Toxicity in Sprague-Dawley rat assessed as average number of ulcers at 50 mg/kg, po administrated for 3 days and measured after 2 hrs. Format: organism-based. The conditions noted are these: in vivo, 74 h.
Data set [20] is described as follows: Toxicity in Sprague-Dawley rat assessed as ulcer score at 50 mg/kg, po administrated for 3 days and measured after 2 hrs. The format is organism-based. The conditions noted are these: in vivo, 74 h.
Data set [21] can be described thus: Toxicity in Sprague-Dawley rat assessed as ulcer index at 50 mg/kg, po administrated for 3 days and measured after 2 hrs. The conditions noted are these: in vivo, 74 h. Format: organism-based.

The structures appear in SMILES notation. The source made the active and inactive calls. The rule behind the calls is not given here.

Take `NS(=O)(=O)c1ccc(-c2nnc(SCC(=O)O)n2-c2ccccc2Br)cc1`: the IC50 at 24 h in data set [1] was above 100 µM. In data set [2], the inhibition at 20 µM worked out at 14%.
The matching figures for `NS(=O)(=O)c1ccc(-c2nnc(SCC(=O)O)n2-c2cccc(F)c2)cc1`: above 100 µM and 15.1%.
For `NS(=O)(=O)c1ccc(-c2nnc(SCC(=O)O)n2-c2ccc(C(F)(F)F)cc2)cc1` the same measures were 62.2 µM and 22.6%.
In the case of `NS(=O)(=O)c1ccc(-c2nnc(SCC(=O)O)n2-c2cccc(Cl)c2)cc1`, the IC50 at 24 h in data set [1] was above 100 µM. For the same molecule, the inhibition at 20 µM in data set [2] was 19.1%.
As for `NS(=O)(=O)c1ccc(-c2nnc(SCC(=O)O)n2-c2ccc([N+](=O)[O-])cc2)cc1`, the half-inhibitory concentration (IC50) at 24 h in data set [1] is above 100 µM. Besides, in [2], the inhibition at 20 µM was 23.9%.
The matching figures for `COc1cccc(-n2c(SCC(=O)O)nnc2-c2ccc(S(N)(=O)=O)cc2)c1`: above 100 µM and 15.6%.
The matching figures for `NS(=O)(=O)c1ccc(-c2nnc(SCC(=O)O)n2-c2cccc(Br)c2)cc1`: above 100 µM and 14.1%.
The matching figures for `NS(=O)(=O)c1ccc(-c2nnc(SCC(=O)O)n2-c2cccc(C(F)(F)F)c2)cc1`: above 100 µM and 21.1%.
Take `NS(=O)(=O)c1ccc(-c2nnc(SCC(=O)O)n2-c2cccc(I)c2)cc1`: the concentration for half-maximal inhibition (IC50) at 24 h in data set [1] is above 100 µM. The inhibition at 20 µM in [2] was found to be 22.5%.
Regarding `Cc1cccc(-n2c(SCC(=O)O)nnc2-c2ccc(S(N)(=O)=O)cc2)c1`, the 50% inhibitory concentration (IC50) at 24 h in data set [1] is 76.6 µM. In [2], the inhibition at 20 µM worked out at 17.7%.
For `NS(=O)(=O)c1ccc(-c2nnc(SCC(=O)O)n2-c2ccccc2F)cc1` the same measures were above 100 µM and 13.6%.
The matching figures for `NS(=O)(=O)c1ccc(-c2nnc(SCC(=O)O)n2-c2ccccc2Cl)cc1`: above 100 µM and 20.9%.
For `NS(=O)(=O)c1ccc(-c2nnc(SCC(=O)O)n2-c2ccccc2C(F)(F)F)cc1` the same measures were above 100 µM and 20.7%.
On to `Cc1ccc(-c2cc(C(F)(F)F)nn2-c2ccc(S(N)(=O)=O)cc2)cc1` [CELECOXIB], for which the inhibition at 20 µM in data set [2] is 38.1%. In addition, the figures for the Activity in data set [3] and in data set [4] were 0.8 and 1.5, respectively. Moreover, the UI in [5] amounted to 6.3. The result in data set [6], in data set [7] and in data set [8] was Active.
As to `NS(=O)(=O)c1ccc(-c2nnc(SCC(=O)O)n2-c2ccc(I)cc2)cc1`, in data set [1], the half-inhibitory concentration (IC50) at 24 h is above 100 µM. In addition, the inhibition at 20 µM in data set [2] is 30.8%. Moreover, the figures for the IC50 in data set [9] and in data set [10] were 16 µM and 0.054 µM, respectively. In addition, in data set [11], the Ratio IC50 is 296. For the same molecule, the result in data set [12], in data set [15] and in data set [16] was Active. Moreover, the Activity result in [13] is “Dose-dependent-effect”; in [14], “Dose-dependent-effect”; in data set [17], “Dose-dependent-effect”; in [18] it was “Dose-dependent-effect”; in [3], 0.6; in [4] it was 0.6. In addition, the UI in data set [5] is given as 5.2.
For the molecule `NS(=O)(=O)c1ccc(-c2nnc(SCC(=O)O)n2-c2ccccc2[N+](=O)[O-])cc1`, the IC50 at 24 h in [1] is above 100 µM. Further, the inhibition at 20 µM in [2] amounted to 13.8%.
Consider `NS(=O)(=O)c1ccc(-c2nnc(SCC(=O)O)n2-c2ccc(Cl)cc2)cc1`, for which the IC50 at 24 h in [1] is above 100 µM. Moreover, in [2], the inhibition at 20 µM was found to be 22.4%.
For `COc1ccc(-n2c(SCC(=O)O)nnc2-c2ccc(S(N)(=O)=O)cc2)cc1` the same measures were above 100 µM and 18.7%.
The matching figures for `Cc1ccc(-n2c(SCC(=O)O)nnc2-c2ccc(S(N)(=O)=O)cc2)cc1`: 74.6 µM and 22.3%.
The matching figures for `NS(=O)(=O)c1ccc(-c2nnc(SCC(=O)O)n2-c2ccccc2I)cc1`: above 100 µM and 17.9%.
As to `NS(=O)(=O)c1ccc(-c2nnc(SCC(=O)O)n2-c2ccc(F)cc2)cc1`, in [1], the IC50 at 24 h is above 100 µM. In [2], the inhibition at 20 µM turned out to be 15.4%.
The matching figures for `COc1ccccc1-n1c(SCC(=O)O)nnc1-c1ccc(S(N)(=O)=O)cc1`: above 100 µM and 12.9%.
`COc1ccc2c(c1)c(CC(=O)O)c(C)n2C(=O)c1ccc(Cl)cc1` [INDOMETHACIN]: the Activity in data set [19] came to 3.18; in data set [20] it was 15.6. The UI in data set [21] was determined as 28.78.
In [1], `NS(=O)(=O)c1ccc(-c2nnc(SCC(=O)O)n2-c2ccc(Br)cc2)cc1` had an IC50 at 24 h above 100 µM. For the same molecule, the inhibition at 20 µM in [2] is 21%.
The matching figures for `Cc1ccccc1-n1c(SCC(=O)O)nnc1-c1ccc(S(N)(=O)=O)cc1`: above 100 µM and 18.8%.
The matching figures for `NS(=O)(=O)c1ccc(-c2nnc(SCC(=O)O)n2-c2cccc([N+](=O)[O-])c2)cc1`: above 100 µM and 13.2%.
